Data published in paper PMC1082716, “Blockade of chemokine-induced signalling inhibits CCR5-dependent HIV infection in vitro without blocking gp120/CCR5 interaction” (Retrovirology, 2005).

Legend:
[1] = molecular target: T1, CXCR4 (Homo sapiens, UniProt P61073); test: Specific binding of biotinylated gp120:V3(IIIb) peptide to Jurkat cells; conditions: 100 μM biotinylated gp120:V3(IIIb); various concentrations of inhibitor; 10^6 cells in 100 μl, 4°C; triplicate
T1 construct: CXCR4, which is expressed on both THP-1 and Jurkat cells, but at higher levels on the T-cell line; endogenous in cells; host or cells: Jurkat T-cells (whole cells, 10^6 per well, 4°C)
T1 sequence (P61073 whole entry): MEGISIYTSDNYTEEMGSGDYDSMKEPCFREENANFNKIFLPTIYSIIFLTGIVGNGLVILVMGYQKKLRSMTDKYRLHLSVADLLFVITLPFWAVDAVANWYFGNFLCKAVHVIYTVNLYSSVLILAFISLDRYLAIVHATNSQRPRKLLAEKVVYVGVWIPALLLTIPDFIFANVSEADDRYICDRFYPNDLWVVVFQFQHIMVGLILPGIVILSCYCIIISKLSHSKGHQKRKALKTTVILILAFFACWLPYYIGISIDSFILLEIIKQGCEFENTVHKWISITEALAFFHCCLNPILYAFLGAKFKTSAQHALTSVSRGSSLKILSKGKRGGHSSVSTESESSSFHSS

[2] = tested on: SDF-1α induced chemotaxis; test: SDF-1α induced chemotaxis (ChemoTx transwell); assay type: cell-based; conditions: 100 ng/ml SDF1α; various concentrations of inhibitor in both compartments; 5 × 10^4 cells per well; 2 h, 37°C; MTT; triplicate
Protocol: Figure 2 Effect of Peptide 3 on gp120:V3 loop peptide binding to cells. (a) The binding of 100 μM N-terminal biotinylated gp120:V3(IIIb) to THP-1 cells was measured in the presence of various concentrations of peptide 3. […] (b) Chemotaxis in response to 100 ng/ml SDF1α was measured in the presence of various concentrations of peptide 3. […] (e) As for (a) except that the effect of Peptide 3 on the binding of gp120:V3(BaL) to THP-1 cells was determined. (f) As for (b) except that the effect of Peptide 3 on chemotaxis induced by 25 ng/ml MIP1α was determined. All binding reactions were performed with 10^6 cells in 100 μl of binding medium at 4°C. Chemotaxis assays were performed with 5 × 10^4 cells per well. Values are mean ± SEM of triplicate determinations.
Chemotaxis experiments were performed essentially as previously described, using the ChemoTx disposable 96-well transwell migration plates, with PVP-free membrane (6 μm pore size). Chemoattractant (lower compartment) and cells upper compartment) were suspended in Gey's Balanced salt solution + 1 mg/ml BSA. […] Migration was allowed to proceed for 2 hours at 37°C. […] Each condition was determined in triplicate, and the number of cells migrating in the absence of chemoattractant was subtracted to determine the chemokine-dependent chemotaxis which was reported.

[3] = tested on: HIV; conditions: cited from earlier work
From the text: It has been proposed that this chemotactic signalling might play a role during HIV infection in vivo, possibly by recruiting susceptible T-cells to sites of viral replication. In other retroviruses envelope/receptor interactions are known to be mitogenic and this may facilitate nuclear translocation and integration of the provirus. In HIV, however, it is not known whether the ability to productively engage the chemokine receptors in this way plays any direct role in acute viral entry and subsequent productive infection of the target cell. […] Since BSCIs, such as Peptide 3, ...

[4] = tested on: chemokine-receptor-induced ERK activity; conditions: MEK inhibitor; ref [25]; cited from earlier work
From the text: (§1) It has been proposed that this chemotactic signalling might play a role during HIV infection in vivo, possibly by recruiting susceptible T-cells to sites of viral replication. In other retroviruses envelope/receptor interactions are known to be mitogenic and this may facilitate nuclear translocation and integration of the provirus. In HIV, however, it is not known whether the ability to productively engage the chemokine receptors in this way plays any direct role in acute viral entry and subsequent productive infection of the target cell.

[5] = tested on: HIV (IIIb); test: HIV (IIIb) infection of Jurkat T-cells, p24gag immunofluorescence; assay type: cell-based; conditions: SDF1α 100 ng/ml, approximately 48 h after infection, 12 fields of view from each of two wells
Protocol: HIV infection of Jurkat T-cells was also monitored by high sensitivity quantitative immunofluoresence detection of viral p24^gag expression. Jurkat cells were infected with HIV in the presence or absence of Peptide 3 (100 μM) or SDF1α (100 ng/ml) as described above. Approximately 48 h after infection, the cells were attached to glass slides using a cytospin and then fixed by immersion in ice-cold 70% ethanol for 90 seconds. Expression of p24^gag was determined using quantitative immunofluoresence as previously described, except that the primary antibody was post-fixed to the section using paraformaldehyde to increase the sensitivity of the technique (see Methods). Viral infectivity was expressed as the number of cells stained for p24^gag expressed as a proportion of the total number of cells (detected using Hoechst 33342 nuclear dye). […]
Jurkat cells following HIV infection were attached to 8-well chamber slides (Becton-Dickinson) by spinning the slides using a plate rotor in a Labofuge centrifuge (Heraeus) at 3,000 × g for 5 minutes. […] A threshold was then applied to each image which was the lowest threhold that detected <1% of the pixels of an image of uninfected cells stained under identical conditions. The number of objects exceeding this threshold in each field of view were counted. […]

[6] = tested on: HIV strain MN; test: HIV (MN) infection of THP-1 cells, p24gag immunofluorescence; assay type: cell-based, HIV-1; conditions: HIV strain MN; Peptide 3 100 μM, MIP1α 100 ng/ml, SDF1α 100 ng/ml; 72 h; p24gag immunofluorescence
Protocol: However, it was possible to assess HIV infectivity of THP-1 cells using high sensitivity immunofluorescent detection of p24^gag. THP-1 cells were differentiated with hydrocortisone and PMA, then treated with TNFα, resulting in adherent monolayers on glass chamber slides. The THP-1 cells were then treated with either Peptide 3 (100 μM), MIP1α (100 ng/ml) or SDF1α (100 ng/ml) as for the Jurkat cells. THP-1 cells were infected with HIV strain MN at a concentration previously validated to produce easily detectable infection and grown for 72 h prior to fixation and staining for p24^gag. In contrast to the findings with HIV strain IIIb infection of Jurkat T cells, Peptide 3 inhibited infection of THP-1 cells by more than 80% (Fig 3c), very similar to the effect of MIP1α.
THP-1 cells were differentiated prior to infection with hydrocortisone and PMA in 8-well chamber slides. Sixteen hours prior to infection, TNFα was added (100 ng/ml). Twelve hours later, the medium was aspirated and replaced with fresh medium containing the test peptides or chemokines as appropriate. After a further four hours, virus from the frozen stocks was adeed to the cells, which were the processed for immunofluoresence between 28 h and 72 h after infection.
Jurkat cells following HIV infection were attached to 8-well chamber slides (Becton-Dickinson) by spinning the slides using a plate rotor in a Labofuge centrifuge (Heraeus) at 3,000 × g for 5 minutes. Attached Jurkat cells or THP-1 cells were then fixed by dipping the slides into ice-cold 70% ethanol for 90 seconds. Non-specific binding was blocked by incubation with 3% fatty acid-free BSA in TBS for 1 hour at room temprature. Cells were incubated with the mouse monoclonal anti-HIV-1 p24^gag antibody EH12E1 (ref 38;AIDS Reagent Program, NIBSC) at 10 μg/ml in 3% BSA in TBS at room temperature overnight. Unbound antibody was removed with 3 × 3 min washes in PBS, and bound antibody was then fixed to the slide by incubation with 3.8% phosphate buffered formalin pH7.2 for 10 mins at room temperature, followed by 3 further 3 min washes in PBS. Bound antibody was visualised using donkey anti-mouse IgG FITC conjugate (715-095-150; Jackson Immunoresearch) at 30 μg/ml in 3% BSA/TBS + 1 ng/ml Hoescht 33342 for 6 hours at room temperature. Twelve fields of view (100× magnification) were captured from each well of the chamber slide using an Olympus Provis AX electronic microscope connected to a Power Macintosh 8500, running OpenLab image analysis software (Improvision), under both FITC illumination conditions (NIBA filter block; λex = 470–490 nm, dichroic mirror = 505 nm, λem = 515–550 nm) and UV illumination conditions (Chroma 31000; λex = 340–380 nm, dichroic mirror = 400 nm, λem = 435–485 nm). Images were acquired with a Hamamatsu C4742-05 monochrome digital camera with 10-bit depth in a 1280-1024 pixel field connected to a DIG Snapper frame grabber. The exposure time, amplifier gain and offset values were controlled by the OpenLab software and were held constant throughout the experiment. A background (an image captured without a slide under the objective) was digitally subtracted from every image. A threshold was then applied to each image which was the lowest threhold that detected <1% of the pixels of an image of uninfected cells stained under identical conditions. The number of objects exceeding this threshold in each field of view were counted. […]

[7] = tested on: HIV (IIIb); test: HIV (IIIb) replication in Jurkat T-cells, supernatant reverse transcriptase activity; assay type: cell-based; conditions: HIV-1 IIIb, Jurkat; SDF1α 100 ng/ml; two weeks; average of six separate experiments
Protocol: HIV infection of Jurkat T-cells using the laboratory-adapted T-tropic isolate IIIb was monitored using two different assays. Firstly, Jurkat T-cells in 96-well plates were pre-treated with either Peptide 3, vehicle (as a negative control) or SDF1α (as a positive control) for 4 hours, then exposed to HIV virus (10^6 TCID50) and pulsed at 2–3 day intervals with Peptide 3, SDF1α or medium alone as appropriate. After two weeks in culture, the extent of viral infection was assayed by measuring the reverse transcriptase activity in the supernatant, as a measure of viral replication in the culture In six separate experiments, Peptide 3 (100 μM) had no effect on virus replication following HIV exposure (Fig 3a), while SDF1α inhibited reverse transcriptase activity by an average of 75%. No effect was seen on cell viability under any of the treatment conditions.
HIV-1 stocks were prepared in the following manner. HIV-1 IIIb (provided by the MRC AIDS Reagent Programme) was used to infect Jurkat T cells and the progression of infection was monitored using the reverse transcriptase assay for 10–14 days. […] Stocks of HIV-1 MN strain were prepared in a similar manner, except that H9 T cells were used and the progression of infection was monitored by immunofluoresence (because of the low RT activity) in this strain. […]

[8] = tested on: Gi-mediated signalling through chemokine receptors; conditions: ref [24]; cited from earlier work
From the text: as §1

Q: With `c1cc(CN2CCCNCCNCCCNCC2)ccc1CN1CCCNCCNCCCNCC1` [AMD3100, reference compound] as the molecule, how does the “Effect on binding of gp120:V3(IIIb) to Jurkat cells” value [1] read?
A: The value was “blocked”.

Q: And the “Effect on SDF-1α induced chemotaxis” value [2]?
A: The value was “blocked”.

Q: Which results are given for `N#CC(=C(/N)Sc1ccccc1N)/C(C#N)=C(/N)Sc1ccccc1N` [Peptide U0126]?
A: Effect on HIV infection in vitro ([3]; MEK inhibitor, ref [25]): block; Effect on chemokine-receptor-induced ERK activity [4]: block

Q: For SDF1α [reference compound], which “Inhibition of viral infectivity (p24gag)” value [5] is on record?
A: The value was “more than 80%”.

Q: What about the “Effect on HIV infection of THP-1 cells (in words)” value [6] of the same molecule?
A: The value was “no statistically significant effect”.

Q: What about the “Inhibition of reverse transcriptase activity” value [7] of the same molecule?
A: Its value is 75%.

Q: For pertussis toxin, which “Effect on cellular infection with HIV in vitro” value ([3]; ref [24] (Guntermann), [25] (Montes; similar results)) is on record?
A: The value was “block cellular infection with HIV in vitro”.

Q: What about the “Effect on Gi-mediated signalling through chemokine receptors” value [8] of the same molecule?
A: The value was “blocks”.

B1: MIP1α: chemokine used at 100 ng/ml (protein, UniProt P10147 24-92, looked up)
C-C motif chemokine 3: SLAADTPTACCFSYTSRQIPQNFIADYFETSSQCSKPGVIFLTKRSRQVCADPSEEWVQKYVSDLELSA
Q: Which “Effect on HIV infection of THP-1 cells (in words)” value [6] does the source give for B1 here?
A: The value was “very similar”.
